This passage reports IC50 results from patent US7851510B2, “Gossypol derivatives, production method thereof and uses of same” (Centre National de la Recherche Scientifique (C.N.R.S.), priority 2004, dated 2010).

The subject of this assay is KB tumour cell line. Kind of assay: Cytotoxicity vis-à-vis the KB tumour cell line. Format: cell-based. The conditions noted are these: Homo sapiens. How it is done:
The cytotoxicity of the compound vis-à-vis the KB tumour cell line was measured as is described in Dao et al. (2003) Bioorg. Med. Chem. 11:2001-2006.

Turning to `CC1=C(C2=C(C)C(=O)c3c(c(CO)c(O)c(O)c3C(C)C)C2=O)C(=O)c2c(CO)c(O)c(O)c(C(C)C)c2C1=O` [(5), 6,7,6′,7′-tetrahydroxy-8,8′-bis-hydroxymethyl-5,5′-diisopropyl-3,3′-dimethyl-[2,2′]binaphthalenyl-1,4,1′,4′-tetraone], the IC50 (as a rule, the point on the concentration scale where inhibition reaches its midpoint) turned out to be 1 µM. For `CC1=C(C2=C(C)C(=O)c3c(c(CSc4ccccc4)c(O)c(O)c3C(C)C)C2=O)C(=O)c2c(CSc3ccccc3)c(O)c(O)c(C(C)C)c2C1=O` [(7), 6,7,6′,7′-tetrahydroxy-5,5′-diisopropyl-3,3′-dimethyl-8,8′-bis-phenylsulphanylmethyl-[2,2′]binaphthalenyl-1,4,1′,4′-tetraone] the value was 4 µM; for `CC1=C(C2=C(C)C(=O)c3c(c(CSc4ccc(C)cc4)c(O)c(O)c3C(C)C)C2=O)C(=O)c2c(CSc3ccc(C)cc3)c(O)c(O)c(C(C)C)c2C1=O` [(8), 6,7,6′,7′-tetrahydroxy-5,5′-diisopropyl-3,3′-dimethyl-8,8′-bis-p-tolylsulphanylmethyl-[2,2′]binaphthalenyl-1,4,1′,4′-tetraone], 6.5 µM. For `COc1ccc(SCc2c(O)c(O)c(C(C)C)c3c2C(=O)C(C2=C(C)C(=O)c4c(c(CSc5ccc(OC)cc5)c(O)c(O)c4C(C)C)C2=O)=C(C)C3=O)cc1` [(9), 6,7,6′,7′-tetrahydroxy-5,5′-diisopropyl-8,8′-bis-(4-methoxy-phenylsulphanylmethyl)-3,3′-dimethyl-[2,2′]binaphthalenyl-1,4,1′,4′-tetraone] the value was 6.5 µM; for `CC1=C(C2=C(C)C(=O)c3c(c(CSc4ccc(Cl)cc4)c(O)c(O)c3C(C)C)C2=O)C(=O)c2c(CSc3ccc(Cl)cc3)c(O)c(O)c(C(C)C)c2C1=O` [(10), 6,7,6′,7′-tetrahydroxy-5,5′-diisopropyl-8,8′-bis-(4-chloro-phenylsulphanylmethyl)-3,3′-dimethyl-[2,2′]binaphthalenyl-1,4,1′,4′-tetraone], 3 µM; for `CC1=C(C2=C(C)C(=O)c3c(c(CSc4c(F)c(F)cc(F)c4F)c(O)c(O)c3C(C)C)C2=O)C(=O)c2c(CSc3c(F)c(F)cc(F)c3F)c(O)c(O)c(C(C)C)c2C1=O` [(11), 6,7,6′,7′-tetrahydroxy-5,5′-diisopropyl-8,8′-bis-(2,3,5,6-tetrafluoro-phenylsulphanylmethyl)-3,3′-dimethyl-[2,2′]binaphthalenyl-1,4,1′,4′-tetraone], 8.5 µM.
